These results are taken from PubChem BioAssay (NCI).

SMILES strings stand for the structures.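 Exposure lasted 48 hours, with cells grown in 96-well plates and compounds tested at five concentrations. TGI marks complete inhibition of growth.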 Some results are limits rather than exact numbers.

Among the test systems are A549 NSCLC; TK-10 renal; SK-MEL-28 melanoma; COLO 205 colon; HT29 colon; MDA-N; M14 melanoma; SF-539 CNS; K-562 leukemia; PC-3 prostate; SW-620 colon; SF-295 CNS; LOX IMVI melanoma; MDA-MB-231 breast; NCI-H522 lung.
Assay in all cases: DTP human tumour cell line panel, 48 h

As for `CC(=O)N1c2ccccc2C2=NN=C(N(C)C)SC21` (stereo not given), the total growth inhibition concentration (TGI) (as a rule, the concentration at which net growth stops) with A549 NSCLC was found to be 11.8 µM; in the experiment with TK-10 renal, 21 µM; in the experiment on SK-MEL-28 melanoma, 15.3 µM; with COLO 205 colon, 12.9 µM; with HT29 colon, 20.5 µM; in the experiment with MDA-N, 19.7 µM. Further, the TGI worked out at 7.97 µM in the experiment on M14 melanoma; 18.3 µM in the experiment on SF-539 CNS; 18.8 µM in the experiment on K-562 leukemia; 18 µM in the experiment with PC-3 prostate; 20 µM in the experiment with SW-620 colon; 8.16 µM in the experiment with SF-295 CNS. Further, the results for the concentration for total growth inhibition (TGI) in the experiment on LOX IMVI melanoma, with MDA-MB-231 breast and with NCI-H522 lung were 14.1 µM, 11 µM and 6.68 µM, respectively.
Consider `N#CCN(Cc1ccccc1)[C@H]1CCC[C@]1(O)/C=C/c1ccc2c(c1)OCO2`, for which the TGI was greater than 100 µM in the experiment on A549 NSCLC; greater than 100 µM with TK-10 renal; 34 µM in the experiment with SK-MEL-28 melanoma; 30.5 µM with COLO 205 colon; 29.8 µM in the experiment with HT29 colon; 35.7 µM with MDA-N. Also, the TGI in the experiment with M14 melanoma was determined as 30.2 µM; in the experiment on SF-539 CNS, 88.8 µM; in the experiment with K-562 leukemia, 51.5 µM; in the experiment with PC-3 prostate, 35.7 µM; in the experiment on SW-620 colon, 43.3 µM; in the experiment on SF-295 CNS, 31.4 µM. For the same compound, the concentration for total growth inhibition (TGI) in the experiment with LOX IMVI melanoma is 29.4 µM; in the experiment on MDA-MB-231 breast it was 71.5 µM; with NCI-H522 lung, 32.1 µM.
For the compound `Clc1ccccc1-c1nn2c(CCCCCCCCc3nnc4sc(-c5ccccc5Cl)nn34)nnc2s1`, the total growth inhibition concentration (TGI) with A549 NSCLC, in the experiment with TK-10 renal, in the experiment on SK-MEL-28 melanoma, in the experiment with COLO 205 colon, with HT29 colon and in the experiment with MDA-N was greater than 100 µM in each case. In addition, the TGI in the experiment on M14 melanoma, in the experiment on SF-539 CNS, in the experiment with K-562 leukemia, in the experiment on PC-3 prostate, in the experiment with SW-620 colon and with SF-295 CNS was greater than 100 µM each time. Moreover, the concentration for total growth inhibition (TGI) in the experiment on LOX IMVI melanoma, with MDA-MB-231 breast and in the experiment with NCI-H522 lung was greater than 100 µM in each case.
`CCOC(=O)C12C3CCC1C2C(=O)C3` (stereo not given): the TGI in the experiment with A549 NSCLC, with TK-10 renal, with SK-MEL-28 melanoma, in the experiment with COLO 205 colon, in the experiment on HT29 colon and in the experiment on MDA-N was greater than 100 µM throughout. The TGI with M14 melanoma, with SF-539 CNS, in the experiment on K-562 leukemia, in the experiment on PC-3 prostate, with SW-620 colon and in the experiment with SF-295 CNS was greater than 100 µM in each case. Further, the TGI in the experiment on LOX IMVI melanoma, in the experiment on MDA-MB-231 breast and in the experiment on NCI-H522 lung was greater than 100 µM in each case.
Take `CC(C)/C(Cl)=N/OC(NC(=O)Nc1ccc(Cl)c(Cl)c1)(C(F)(F)F)C(F)(F)F`: the TGI in the experiment on A549 NSCLC came out at 72.4 µM; in the experiment on TK-10 renal, 31.2 µM; in the experiment on SK-MEL-28 melanoma, 35.3 µM; with COLO 205 colon, 9.27 µM; in the experiment with HT29 colon, 53.7 µM; in the experiment with MDA-N, 32.3 µM. In addition, the TGI in the experiment with M14 melanoma is 18.3 µM; in the experiment on SF-539 CNS, 33.2 µM; in the experiment with K-562 leukemia, 8.86 µM; in the experiment on PC-3 prostate, 27.3 µM; in the experiment with SW-620 colon, 3.92 µM; in the experiment on SF-295 CNS, 38.5 µM. Further, the concentration for total growth inhibition (TGI) is 14.7 µM with LOX IMVI melanoma, 34.2 µM in the experiment on MDA-MB-231 breast and 3.31 µM in the experiment on NCI-H522 lung.
For `COc1ccc(C[C@H]2NC[C@H](OC(C)=O)[C@H]2OC(C)=O)cc1`, the total growth inhibition concentration (TGI) in the experiment on A549 NSCLC is 1.08 µM; in the experiment with TK-10 renal, greater than 35.3 µM; in the experiment with SK-MEL-28 melanoma it was 0.562 µM; in the experiment with COLO 205 colon, 0.311 µM; in the experiment on HT29 colon, 1.04 µM; in the experiment on MDA-N it was 0.732 µM. Moreover, the total growth inhibition concentration (TGI) in the experiment with M14 melanoma is 0.328 µM; with SF-539 CNS, 10.4 µM; in the experiment with K-562 leukemia, 51.6 µM; with PC-3 prostate it was 1.08 µM; in the experiment on SW-620 colon it was 1.14 µM; in the experiment on SF-295 CNS it was 4.26 µM. For the same compound, the TGI with LOX IMVI melanoma worked out at 0.331 µM; with MDA-MB-231 breast it was 1.49 µM; in the experiment with NCI-H522 lung, 0.289 µM.
As for `Cc1cc2c(c(C=Nc3ccc(N(C)C)cc3)c1)OC1(C=C2)Oc2ccccc2C(=O)N1C` (stereo not given), the TGI with A549 NSCLC was found to be 55.6 µM; in the experiment on TK-10 renal, 30.7 µM; in the experiment on SK-MEL-28 melanoma, 29.7 µM; in the experiment on COLO 205 colon, 33.9 µM; in the experiment on HT29 colon, 57.2 µM; in the experiment with MDA-N, 28.1 µM. Besides, the total growth inhibition concentration (TGI) in the experiment with M14 melanoma is 30 µM; in the experiment on SF-539 CNS it was 28.2 µM; in the experiment on K-562 leukemia, 21.1 µM; with PC-3 prostate, greater than 52.5 µM; in the experiment with SW-620 colon it was 35.6 µM; with SF-295 CNS it was 46.5 µM. Moreover, the figures for the concentration for total growth inhibition (TGI) with LOX IMVI melanoma, in the experiment on MDA-MB-231 breast and with NCI-H522 lung were 29.7 µM, 24.8 µM and 36.9 µM, respectively.
As to `O=c1oc2ccccc2cc1-c1nc2ccccc2c(=O)[nH]1`, the TGI with A549 NSCLC, in the experiment on TK-10 renal, in the experiment with SK-MEL-28 melanoma, with COLO 205 colon, in the experiment with HT29 colon and with MDA-N was greater than 100 µM each time. Also, the total growth inhibition concentration (TGI) in the experiment with M14 melanoma, in the experiment with SF-539 CNS, in the experiment with K-562 leukemia, in the experiment on PC-3 prostate, in the experiment with SW-620 colon and with SF-295 CNS was greater than 100 µM in each case. Further, the TGI with LOX IMVI melanoma, with MDA-MB-231 breast and in the experiment on NCI-H522 lung was greater than 100 µM in each case.
On to `CC(C)(C)c1cc(C(C)(C)C)c(P=C(Cl)Cl)c(C(C)(C)C)c1` (stereo not given), for which the TGI in the experiment on A549 NSCLC, with TK-10 renal, with SK-MEL-28 melanoma, in the experiment with COLO 205 colon, with HT29 colon and in the experiment on MDA-N was greater than 100 µM throughout. In addition, the total growth inhibition concentration (TGI) with M14 melanoma, with SF-539 CNS, with K-562 leukemia, in the experiment on PC-3 prostate, with SW-620 colon and with SF-295 CNS was greater than 100 µM throughout. Further, the TGI in the experiment on LOX IMVI melanoma, in the experiment on MDA-MB-231 breast and in the experiment on NCI-H522 lung was greater than 100 µM each time.
